One data set concerns HaloTag protein tag. Kind of data set: Probe mixed with HaloTag protein tag, fluorescence spectrophotometer (Example 86). It is filed as biochemical. The conditions noted are these: 5 μM probe, 10 μM protein tag, 37° C., 1 hour; for Fluorescence enhancement: fluorescence activation multiple after binding protein tag; for Emission/nm: fluorescence emission wavelength. The procedure: (§1) A probe was mixed with a corresponding HaloTag protein tag to obtain a mixed sample. The final concentration of the probe in the mixed sample was 5 μM and the final concentration of the protein tag was 10 μM. The mixed sample was incubated at 37° C. for 1 hour, and the sample was detected using a fluorescence spectrophotometer.

Data set [1] can be described thus: Quantum yield of free probe not reacted with protein tag. It is filed as physicochemical. Here is the method: as §1
A short description of data set [2]: Viscosity responsiveness: fluorescence intensity in glycerol versus methanol. It is filed as physicochemical. The conditions noted are these: fluorescence intensity in glycerol to that in methanol. Here is the method: The above-mentioned viscosity-responsive fluorescent dye means that the fluorescence intensity of the dye responds to the viscosity of the solution. As the viscosity of the solution increases, the fluorescence intensity increases. Optionally, the viscosity-responsive fluorescent dye is an organic dye molecule which, under the same concentration and excitation wavelength, at 25° C. has a ratio • of the maximum fluorescence emission intensity of the dye in glycerol to the fluorescence intensity in methanol of greater than 2, optionally greater than 5, optionally greater than 10. The concentration of the viscosity-responsive dye ranges from 1×10^−7 M to 1×10^−5 M.

`CC(C)(C)OC(=O)/C(C#N)=C/c1ccc(N(CCOC(=O)NCCCS(=O)(=O)[O-])CCOC(=O)NCCOCCOCCCCCCCl)cc1.[Na+]` [Probe5]: in the data set with HaloTag protein tag, the “The quantum yield after binding to Halo-tag” value is given as 0.46, the Fluorescence enhancement stood at 1174 and the Emission/nm worked out at 480 nm. In addition, the “The quantum yield of the free probe” value in data set [1] is listed as <0.001. In addition, the ratio in data set [2] was found to be 790.
Take `CN(CCOC(=O)NCCOCCOCCCCCCCl)c1ccc(/C=C(\C#N)C(=O)OC(C)(C)C)cc1` [Probe 1]: in the data set with HaloTag protein tag, the “The quantum yield after binding to Halo-tag” value was 0.52, the Fluorescence enhancement is on record as 500 and the Emission/nm was 480 nm. For the same molecule, the “The quantum yield of the free probe” value in data set [1] was <0.001. In addition, the ratio in data set [2] is recorded as 560.
For `CN(CCOC(=O)NCCOCCOCCCCCCCl)c1ccc(/C=C(\C#N)c2nc3ccccc3o2)cc1` [Probe 2], in that order: 0.48, 410, 510 nm, 0.001 and 410.
In the same order, the values of `CN(CCOC(=O)NCCOCCOCCCCCCCl)c1ccc(/C=C(\C#N)c2nc3ccccc3s2)cc1` [Probe 3] are 0.45, 512, 515 nm, 0.0011 and 399.
Consider `CC(C)(C)OC(=O)/C(C#N)=C/c1ccc(N(CCO)CCOC(=O)NCCOCCOCCCCCCCl)cc1` [Probe 4], for which, in the data set with HaloTag protein tag, the “The quantum yield after binding to Halo-tag” value came to 0.42, the Fluorescence enhancement stood at 490 and the Emission/nm amounted to 480 nm. Also, the “The quantum yield of the free probe” value in data set [1] is recorded as <0.001. Besides, the ratio in data set [2] is recorded as 562.
In the same order, the values of `CN1C(=O)/C(=C/c2ccc(N(C)CCOC(=O)NCCOCCOCCCCCCCl)cc2)N=C1c1ccccc1` [Probe 6] are 0.40, 989, 530 nm, <0.001 and 1183.
In the same order, the values of `CN1C(=O)/C(=C/c2ccc(N(C)CCOC(=O)NCCOCCOCCCCCCCl)cc2)N=C1/C=C/c1ccccc1` [Probe 7] are 0.46, 1502, 580 nm, <0.001 and 1455.
For `CN(CCOC(=O)NCCOCCOCCCCCCCl)c1ccc(C2=C(C#N)C(=C(C#N)C#N)OC2(C)C)cc1` [Probe 8], in that order: 0.47, 296, 535 nm, 0.0018 and 320.
In the case of `CN(CCOC(=O)NCCOCCOCCCCCCCl)c1ccc(/C=C(\C#N)C(=O)O)cc1` [Probe 9], in the data set on HaloTag protein tag, the “The quantum yield after binding to Halo-tag” value was 0.50, the Fluorescence enhancement was determined as 745 and the Emission/nm amounted to 480 nm. The “The quantum yield of the free probe” value in data set [1] is on record as <0.001. Besides, the ratio in data set [2] was determined as 851.
In the same order, the values of `CN(CCOC(=O)NCCOCCOCCCCCCCl)c1cc2sc(/C=C(\C#N)C(=O)OC(C)(C)C)cc2s1` [Probe 10] are 0.42, 431, 550 nm, <0.001 and 655.
For `CN(CCOC(=O)NCCOCCOCCCCCCCl)c1cc2sc(/C=C(\C#N)c3nc4ccccc4o3)cc2s1` [Probe 11], in that order: 0.46, 520, 590 nm, 0.0013 and 422.
For `CN(CCOC(=O)NCCOCCOCCCCCCCl)c1cc2sc(/C=C(\C#N)C(=O)O)cc2s1` [Probe 12], in that order: 0.41, 750, 555 nm, 0.0012 and 405.
`CN(CCOC(=O)NCCOCCOCCCCCCCl)c1ccc2cc(/C=C(\C#N)C(=O)OC(C)(C)C)sc2c1` [Probe 13]: in the data set on HaloTag protein tag, the “The quantum yield after binding to Halo-tag” value came out at 0.56, the Fluorescence enhancement was 816 and the Emission/nm came to 570 nm. The “The quantum yield of the free probe” value in data set [1] is reported as <0.001. In addition, the ratio in data set [2] worked out at 391.
For `CN(CCOC(=O)NCCOCCOCCCCCCCl)c1ccc2cc(/C=C(\C#N)c3nc4ccccc4o3)sc2c1` [Probe 14], in that order: 0.52, 771, 610 nm, <0.001 and 560.
For `CC(C)(C)OC(=O)/C(C#N)=C/c1cc2ccc(N(CCO)CCOC(=O)NCCOCCOCCCCCCCl)cc2s1` [Probe 15], in that order: 0.53, 379, 570 nm, <0.001 and 320.
In the same order, the values of `CC1=N/C(=C\c2cc3ccc(N(C)CCOC(=O)NCCOCCOCCCCCCCl)cc3s2)C(=O)N1C` [Probe 17] are 0.56, 498, 575 nm, <0.001 and 402.
With `CN(CCOC(=O)NCCOCCOCCCCCCCl)c1ccc2cc(/C=C(\C#N)C(=O)O)sc2c1` [Probe 18], in the data set on HaloTag protein tag, the “The quantum yield after binding to Halo-tag” value is listed as 0.51, the Fluorescence enhancement came out at 444 and the Emission/nm is reported as 568 nm. The “The quantum yield of the free probe” value in data set [1] was found to be 0.0017. In data set [2], the ratio amounted to 301.
For `CN(CCOC(=O)NCCOCCOCCCCCCCl)c1ccc2nc(/C=C(\C#N)C(=O)OC(C)(C)C)oc2c1` [Probe 19], in that order: 0.53, 561, 625 nm, 0.0012 and 299.
For `CN(CCOC(=O)NCCOCCOCCCCCCCl)c1ccc2nc(/C=C(\C#N)c3nc4ccccc4o3)oc2c1` [Probe 20], in that order: 0.47, 612, 640 nm, <0.001 and 341.
For `CN(CCOC(=O)NCCOCCOCCCCCCCl)c1ccc2nc(/C=C(\C#N)C(=O)O)oc2c1` [Probe 21], in that order: 0.48, 560, 628 nm, <0.001 and 1481.
Regarding `CN1C(=O)/C(=C/c2nc3ccc(N(C)CCOC(=O)NCCOCCOCCCCCCCl)cc3o2)N=C1c1ccccc1` [Probe 22], in the data set with HaloTag protein tag, the “The quantum yield after binding to Halo-tag” value is given as 0.36, the Fluorescence enhancement worked out at 610 and the Emission/nm is given as 632 nm. In addition, in data set [1], the “The quantum yield of the free probe” value is <0.001. Besides, the ratio in data set [2] is given as 1821.
In the same order, the values of `CN(CCOC(=O)NCCOCCOCCCCCCCl)c1ccc2nc(/C=C(\C#N)c3nc4ccccc4s3)oc2c1` [Probe 23] are 0.52, 712, 637 nm, <0.001 and 1235.
As for `CN(CCOC(=O)NCCOCCOCCCCCCCl)c1ccc2nc(/C=C(\C#N)C(=O)OC(C)(C)C)sc2c1` [Probe 24], in the data set with HaloTag protein tag, the “The quantum yield after binding to Halo-tag” value is recorded as 0.52, the Fluorescence enhancement came out at 590 and the Emission/nm is 622 nm. The “The quantum yield of the free probe” value in data set [1] is recorded as <0.001. In addition, in data set [2], the ratio stood at 1681.
In the same order, the values of `CN(CCOC(=O)NCCOCCOCCCCCCCl)c1ccc2nc(/C=C(\C#N)C(=O)O)sc2c1` [Probe 25] are 0.51, 670, 620 nm, <0.001 and 1621.
For `CN(CCOC(=O)NCCOCCOCCCCCCCl)c1ccc2nc(/C=C(\C#N)C(=O)OC(C)(C)C)ccc2c1` [Probe 26], in that order: 0.56, 910, 590 nm, <0.001 and 1123.
In the same order, the values of `CN(CCOC(=O)NCCOCCOCCCCCCCl)c1ccc2nc(/C=C(\C#N)c3nc4ccccc4o3)ccc2c1` [Probe 27] are 0.43, 665, 620 nm, <0.001 and 1134.

The record behind these values is patent US12492337B2, “Fluorescent probe, preparation method therefor and use thereof” (FLUORESCENCE DIAGNOSIS (SHANGHAI) BIOTECH COMPANY, priority 2017, dated 2025).
